Reference: patent US7288671B2, “Interleukin-1 and tumor necrosis factor-α modulators, synthesis of said modulators and their enantiomers and methods of using said modulators” (Nereus Pharmaceuticals, Inc., priority 1999, dated 2007)

What was measured:
[1] = tested on: THP-1 cells; assay: Resazurin (alamarBlue) cell viability assay in differentiated THP-1 cells; type: cell-based, human; settings: footnote marks: * mild, ** marked reduction in viability, in % (unit assumed)
Description: (§1) The ability to inhibit TNF-α production was analyzed in THP-1 cells, a human acute monocytic leukemia cell line that is widely used to assess monocyte functions. In order to induce maturation, THP-1 cells were plated at 1×10^6 cells/ml and pretreated with 5 nM PMA for two days. Differentiated THP-1 cells were pretreated with various concentrations of NPI-1302a-3 or its analogs for 1 hour, followed by a 4 hour incubation with 1 μg of LPS (Sigma, St. Louse, Mo.). The P38 inhibitor (10 μM, SB 203580; Sigma, St. Louis, Mo.) was used as a positive control. Supernatants were collected and stored at −80° C. until assayed for TNF-α activity. A resazurin assay was performed for each analog to evaluate the effects on cell metabolism and viability.
A preparation of the dye resazurin, commercially-available as alamarBlue™ (Biosource International Inc.; 820 Flynn Road, Camarillo, Calif.), was used for the cytotoxicity assays described herein. The assays and experiments described herein were conducted in substantially the same manner as described in the scientific literature, for example, in Magnani, E and Bettini, E., “Resazurin detection of energy metabolism changes in serum-starved PC12 cells and of neuroprotective agent effect,” Brain Res Protoc., Jul. 5, 2000(3):266-72 and in Nociari M. M., Shalev A., Benias P., and Russo C. J, “A novel one-step, highly sensitive fluorometric assay to evaluate cell-mediated cytotoxicity,” Immunol.Methods 213, 157-167 (1998), see also U.S. Pat. No. 5,501,959, entitled “Antibiotic and Cytotoxic Drug Susceptibility Assays using Resazurin and Poising Agents,” the entire specification of which is incorporated herein by reference.

[2] = tested on: TNF-α synthesis of THP-1 cells; assay: LPS-induced TNF-α production in PMA-differentiated THP-1 cells (FLISA); type: cell-based, human; settings: THP-1, LPS
Description: as §1
To detect the presence of human TNFα, fluorescent linked immunosorbent assay or FLISA was developed and optimized. 100 μl of beads (6 μm, Spherotech) coated with goat anit-mouse IgG (1 mg/ml, R and D Systems) were mixed with 4 μl of biotin-anti-hTNFα mouse IgG (0.1 mg/ml, R and D Systems) and 2 μl of FMAT Blue-streptavidin (0.1 mg/ml, Applied Biosystems). 50 μl of the mixtures was combined with 50 μl of the supernatant isolated from treated THP-1 cells and added to the black wall FLISA plates (Applied Biosystems) and incubated overnight. The plates were scanned at factory set PMT setting, and the values were plotted and analyzed by Applied Biosystems software.

[3] = tested on: iNOS (inducible nitric oxide synthase); settings: cited from earlier work
[4] = tested on: COX-2 (cyclooxygenase-2); settings: cited from earlier work

C=CC1(C)CCC=C2C1CCC1C(C)(CC=O)CCCC21C (stereo not shown) [CC-3-14]
Cell Viability ([1]; 100 ng/ml): 100 | Cell Viability ([1]; 1 ug/ml): 100 | Percent TNF-α Inhibition ([2]; 100 ng/ml): 25% | Percent TNF-α Inhibition ([2]; 1 ug/ml): 30%

C=CC1(C)CCC=C2C1CCC1C(C)(C(=O)[O-])CCCC21C.[Na+] (stereo not shown) [TTL-1Na]
Cell Viability ([1]; 1 ug/ml): 90* | Cell Viability ([1]; 10 ug/ml): 80* | Percent TNF-α Inhibition ([2]; 1 ug/ml): 40% | Percent TNF-α Inhibition ([2]; 10 ug/ml): 50%

C=CC1(C)CCC=C2C1CCC1C(C)(C(=O)[O-])CCCC21C.[K+] (stereo not shown) [TTL-1K]
Percent TNF-α Inhibition ([2]; 100 ng/ml): 10% | Percent TNF-α Inhibition ([2]; 1 ug/ml): 50%

CC1(C)CC[C@]2(C(=O)O)CC[C@]3(C)[C@H](C(=O)C=C4[C@@]5(C)C=C(C#N)C(=O)C(C)(C)[C@@H]5CC[C@]43C)[C@@H]2C1 [Compound 54, 2-cyano-3,12-dioxoolean-1,9-dien-28-oic acid]
fold more active than any other known triterpenoid in suppressing iNOS [3]: 500 fold | fold more active than any other known triterpenoid in suppressing COX-2 [4]: 500 fold

C=CC1(C)CCC=C2C1CCC1C(C)(CCNCCN)CCCC21C (racemic) [CC-3-15 ra]
Cell Viability ([1]; 1 ug/ml): 100 | Cell Viability ([1]; 10 ug/ml): 100 | Percent TNF-α Inhibition ([2]; 1 ug/ml): 25% | Percent TNF-α Inhibition ([2]; 10 ug/ml): 65%

C=CC1(C)CCC=C2C1CCC1C(C)(COC(=O)CCC(=O)O)CCCC21C (stereo not shown) [CC-3-17]
Cell Viability ([1]; 100 ng/ml): 90* | Cell Viability ([1]; 1 ug/ml): 85* | Cell Viability ([1]; 10 ug/ml): 75** | Percent TNF-α Inhibition ([2]; 100 ng/ml): 10% | Percent TNF-α Inhibition ([2]; 1 ug/ml): 20% | Percent TNF-α Inhibition ([2]; 10 ug/ml): 25%

C=CC1(C)CCC=C2C1CCC1C(C)(COC(C)=O)CCCC21C (stereo not shown) [LT-1-46]
Cell Viability ([1]; 100 ng/ml): 100 | Cell Viability ([1]; 1 ug/ml): 90* | Cell Viability ([1]; 10 ug/ml): 90* | Percent TNF-α Inhibition ([2]; 100 ng/ml): 0% | Percent TNF-α Inhibition ([2]; 1 ug/ml): 0% | Percent TNF-α Inhibition ([2]; 10 ug/ml): 20%

C=CC1(C)CCC=C2C1CCC1C(C)(C(=O)N3CCOCC3)CCCC21C (stereo not shown) [LT-1-85]
Cell Viability ([1]; 100 ng/ml): 100 | Cell Viability ([1]; 1 ug/ml): 100 | Cell Viability ([1]; 10 ug/ml): 80* | Percent TNF-α Inhibition ([2]; 100 ng/ml): 10% | Percent TNF-α Inhibition ([2]; 1 ug/ml): 45% | Percent TNF-α Inhibition ([2]; 10 ug/ml): 55%
